The text below walks through data of ChEMBL document CHEMBL1153634, “Synthesis of novel triterpenoid (lupeol) derivatives and their in vivo antihyperglycemic and antidyslipidemic activity” (2009).

Experiment [1] relates to Rattus norvegicus. The experiment can be described thus: Antihyperglycemic activity in sucrose challenged albino Sprague-Dawley rat STZ-S model assessed as decrease in blood glucose level at 100 mg/kg, po preincubated 30 min before sucrose challenge measured 24 hrs after last dose. Set-up: scale not given: the % may be the effect or the level left. It is filed as functional.

The test system of experiment [2] is Rattus norvegicus. The experiment can be described thus: Antihyperglycemic activity in sucrose challenged albino Sprague-Dawley rat STZ-S model assessed as decrease in blood glucose level at 100 mg/kg, po preincubated 30 min before sucrose challenge measured 5 hrs after last dose. The format is functional. Set-up: scale not given: the % may be the effect or the level left.

In experiment [3] the test system is Syrian golden hamster. The experiment can be described thus: Antidyslipidemic activity in high fat diet fed dyslipidemic golden Syrian hamster model assessed as change in plasma […] level at 50 mg/kg, po administered once daily from day 4 to day 10 measured on day 10 after 2 hrs of last dose relative to baseline. The format is functional, Mesocricetus auratus.

Experiment [4] relates to Syrian golden hamster. The experiment can be described thus: Antidyslipidemic activity in high fat diet fed dyslipidemic golden Syrian hamster model assessed as change in food intake at 50 mg/kg, po administered once daily from day 4 to day 10 measured on day 10 after 2 hrs of last dose relative to baseline. The format is functional, Mesocricetus auratus.
Experiment [5] has as its system Syrian golden hamster. The experiment can be described thus: Antidyslipidemic activity in high fat diet fed dyslipidemic golden Syrian hamster model assessed as change in plasma glycerol level at 50 mg/kg, po administered once daily from day 4 to day 10 measured on day 10 after 2 hrs of last dose relative to baseline. It is filed as functional, Mesocricetus auratus.

Experiment [6] deals with Syrian golden hamster. The experiment can be described thus: Antidyslipidemic activity in high fat diet fed dyslipidemic golden Syrian hamster model assessed as change in plasma HDL-cholesterol level at 50 mg/kg, po administered once daily from day 4 to day 10 measured on day 10 after 2 hrs of last dose relative to baseline. It is filed as functional, Mesocricetus auratus.

Experiment [7] deals with Syrian golden hamster. The experiment can be described thus: Antidyslipidemic activity in high fat diet fed dyslipidemic golden Syrian hamster model assessed as change in plasma cholesterol level at 50 mg/kg, po administered once daily from day 4 to day 10 measured on day 10 after 2 hrs of last dose relative to baseline. The format is functional, Mesocricetus auratus.
Experiment [8] concerns Syrian golden hamster. The experiment can be described thus: Antidyslipidemic activity in high fat diet fed dyslipidemic golden Syrian hamster model assessed as change in plasma triglyceride level at 50 mg/kg, po administered once daily from day 4 to day 10 measured on day 10 after 2 hrs of last dose relative to baseline. The format is functional, Mesocricetus auratus.
In experiment [9] the test system is Syrian golden hamster. The experiment can be described thus: Antidyslipidemic activity in high fat diet fed dyslipidemic golden Syrian hamster model assessed as change in plasma HDL to cholesterol ratio at 50 mg/kg, po administered once daily from day 4 to day 10 measured on day 10 after 2 hrs of last dose relative to baseline. It is filed as functional, Mesocricetus auratus.

Experiment [10] has as its system Syrian golden hamster. The experiment can be described thus: Antidyslipidemic activity in high fat diet fed dyslipidemic golden Syrian hamster model assessed as change in plasma glycerol level at 100 mg/kg, po administered once daily from day 4 to day 10 measured on day 10 after 2 hrs of last dose relative to baseline. The format is functional, Mesocricetus auratus.

Experiment [11] concerns Syrian golden hamster. The experiment can be described thus: Antidyslipidemic activity in high fat diet fed dyslipidemic golden Syrian hamster model assessed as change in plasma cholesterol level at 100 mg/kg, po administered once daily from day 4 to day 10 measured on day 10 after 2 hrs of last dose relative to baseline. The format is functional, Mesocricetus auratus.
For experiment [12], the system named is Syrian golden hamster. The experiment can be described thus: Antidyslipidemic activity in high fat diet fed dyslipidemic golden Syrian hamster model assessed as change in plasma HDL-cholesterol level at 100 mg/kg, po administered once daily from day 4 to day 10 measured on day 10 after 2 hrs of last dose relative to baseline. The format is functional, Mesocricetus auratus.

Experiment [13] has as its system Syrian golden hamster. The experiment can be described thus: Antidyslipidemic activity in high fat diet fed dyslipidemic golden Syrian hamster model assessed as change in plasma free fatty acid level at 100 mg/kg, po administered once daily from day 4 to day 10 measured on day 10 after 2 hrs of last dose relative to baseline. The format is functional, Mesocricetus auratus.

For experiment [14], the system named is Syrian golden hamster. The experiment can be described thus: Antidyslipidemic activity in high fat diet fed dyslipidemic golden Syrian hamster model assessed as change in plasma HDL to cholesterol ratio at 100 mg/kg, po administered once daily from day 4 to day 10 measured on day 10 after 2 hrs of last dose relative to baseline. The format is functional, Mesocricetus auratus.

Experiment [15] deals with Syrian golden hamster. The experiment can be described thus: Antidyslipidemic activity in high fat diet fed dyslipidemic golden Syrian hamster model assessed as change in plasma triglyceride level at 100 mg/kg, po administered once daily from day 4 to day 10 measured on day 10 after 2 hrs of last dose relative to baseline. The format is functional, Mesocricetus auratus.

The subject of experiment [16] is Syrian golden hamster. The experiment can be described thus: Antidyslipidemic activity in high fat diet fed dyslipidemic golden Syrian hamster model assessed as change in plasma cholesterol level at 108 mg/kg, po administered once daily from day 4 to day 10 measured on day 10 after 2 hrs of last dose. The format is functional, Mesocricetus auratus.
Experiment [17] relates to Syrian golden hamster. The experiment can be described thus: Antidyslipidemic activity in high fat diet fed dyslipidemic golden Syrian hamster model assessed as change in plasma glycerol level at 108 mg/kg, po administered once daily from day 4 to day 10 measured on day 10 after 2 hrs of last dose. It is filed as functional, Mesocricetus auratus.
The subject of experiment [18] is Syrian golden hamster. The experiment can be described thus: Antidyslipidemic activity in high fat diet fed dyslipidemic golden Syrian hamster model assessed as change in plasma HDL to cholesterol ratio at 108 mg/kg, po administered once daily from day 4 to day 10 measured on day 10 after 2 hrs of last dose. The format is functional, Mesocricetus auratus.
Experiment [19] concerns Syrian golden hamster. The experiment can be described thus: Antidyslipidemic activity in high fat diet fed dyslipidemic golden Syrian hamster model assessed as change in plasma triglyceride level at 108 mg/kg, po administered once daily from day 4 to day 10 measured on day 10 after 2 hrs of last dose. The format is functional, Mesocricetus auratus.
Experiment [20] concerns Syrian golden hamster. The experiment can be described thus: Antidyslipidemic activity in high fat diet fed dyslipidemic golden Syrian hamster model assessed as change in plasma HDL-cholesterol level at 108 mg/kg, po administered once daily from day 4 to day 10 measured on day 10 after 2 hrs of last dose. The format is functional, organism-based. Set-up: dose 108 mg/kg. To be noted: Mesocricetus auratus.

Calls of active or inactive are those of the source. The calls are words filed in the database; no cut-off is given here.

Regarding `C=C(C)[C@@H]1CC[C@]2(C)CC[C@]3(C)[C@H](CC[C@@H]4[C@@]5(C)CC[C@H](OC(=O)/C=C/c6cccs6)C(C)(C)[C@@H]5CC[C@]43C)[C@@H]12`, the Activity in [1] is listed as -14.9%; in experiment [2], -12.5%.
Regarding `C=C(C)[C@@H]1CC[C@]2(C)CC[C@]3(C)[C@H](CC[C@@H]4[C@@]5(C)CC[C@H](OC(=O)Cc6ccc(OC)cc6)C(C)(C)[C@@H]5CC[C@]43C)[C@@H]12`, the Activity was 4% in [3]; -4% in experiment [4]; -8% in [5]; -5% in experiment [6]; -25% in experiment [7]; 20% in experiment [8]. Moreover, in experiment [9], the Activity stood at 24%.
As for `C=C(C)[C@@H]1CC[C@]2(C)CC[C@]3(C)[C@H](CC[C@@H]4[C@@]5(C)CC[C@H](OC(=O)Cc6ccccn6)C(C)(C)[C@@H]5CC[C@]43C)[C@@H]12`, the Activity in [1] was -18.2%; in [2] it was -20.5%.
For the compound `CN(C)C(=N)NC(=N)N` [METFORMIN], the Activity in [1] was -26.5%; in experiment [2], -23.5%.
Regarding `C=C(C)[C@@H]1CC[C@]2(C)CC[C@]3(C)[C@H](CC[C@@H]4[C@@]5(C)CC[C@H](OC(=O)c6ccc(Cl)cc6)C(C)(C)[C@@H]5CC[C@]43C)[C@@H]12`, the Activity in experiment [3] was 5%; in experiment [4], 4%; in experiment [1] it was -19.6%; in experiment [5], -14%; in [6] it was -14%; in [7] it was -27%. For the same compound, the Activity in experiment [2] is listed as -17.8%; in experiment [8], -11%; in experiment [9] it was 14%.
Regarding `C=C(C)[C@@H]1CC[C@]2(C)CC[C@]3(C)[C@H](CC[C@@H]4[C@@]5(C)CC[C@H](OC(=O)/C=C/c6cccnc6)C(C)(C)[C@@H]5CC[C@]43C)[C@@H]12`, the Activity in experiment [1] was -15.7%; in [2], -13.4%.
For `C=C(C)[C@@H]1CC[C@]2(C)CC[C@]3(C)[C@H](CC[C@@H]4[C@@]5(C)CC[C@H](OC(=O)/C=C/c6ccsc6)C(C)(C)[C@@H]5CC[C@]43C)[C@@H]12`, the Activity is reported as -21.5% in experiment [1] and -16.9% in experiment [2].
On to `C=C(C)[C@@H]1CC[C@]2(C)CC[C@]3(C)[C@H](CC[C@@H]4[C@@]5(C)CC[C@H](O)C(C)(C)[C@@H]5CC[C@]43C)[C@@H]12` [LUPEOL], for which the Activity in experiment [10] was -10%; in experiment [11], -9%; in experiment [12] it was 44%; in experiment [13], -23%; in experiment [14] it was 63%; in experiment [15], -26%.
Turning to `C=C(C)[C@@H]1CC[C@]2(C)CC[C@]3(C)[C@H](CC[C@@H]4[C@@]5(C)CC[C@H](OC(=O)CNC(=O)c6ccccc6)C(C)(C)[C@@H]5CC[C@]43C)[C@@H]12`, the results for the Activity in experiment [1] and in [2] were -23.6% and -13.8%, respectively.
On the same counts, the results for `C=C(C)[C@@H]1CC[C@]2(C)CC[C@]3(C)[C@H](CC[C@@H]4[C@@]5(C)CC[C@H](OC(=O)/C=C/c6ccco6)C(C)(C)[C@@H]5CC[C@]43C)[C@@H]12` are -18.5% and -15.8%.
`C=C(C)[C@@H]1CC[C@]2(C)CC[C@]3(C)[C@H](CC[C@@H]4[C@@]5(C)CC[C@H](OC(=O)c6cccnc6)C(C)(C)[C@@H]5CC[C@]43C)[C@@H]12`: the Activity in experiment [3] is on record as 2%; in experiment [4], 8%; in experiment [1], -25%; in experiment [5], -30%; in experiment [6], 5%; in [7], -24%. Besides, the figures for the Activity in [2], in experiment [8] and in [9] were -18.3%, -40% and 57%, respectively.
As for `C=C(C)[C@@H]1CC[C@]2(C)CC[C@]3(C)[C@H](CC[C@@H]4[C@@]5(C)CC[C@H](OC(=O)c6ccc([N+](=O)[O-])cc6)C(C)(C)[C@@H]5CC[C@]43C)[C@@H]12`, the Activity is reported as 6% in experiment [3]; 4% in [4]; -21.1% in experiment [1]; -21% in experiment [5]; -30% in experiment [6]; -34% in experiment [7]. Besides, the values for the Activity in [2], in [8] and in experiment [9] were -14.8%, -20% and 4%, respectively.
With `CC(C)OC(=O)C(C)(C)Oc1ccc(C(=O)c2ccc(Cl)cc2)cc1` [FENOFIBRATE], the Activity in experiment [16] is on record as -18%; in experiment [17], -36%; in [18] it was 10%; in [19], -42%. The result in experiment [20] was inactive.
For `C=C(C)[C@@H]1CC[C@]2(C)CC[C@]3(C)[C@H](CC[C@@H]4[C@@]5(C)CC[C@H](OC(=O)CCc6cccnc6)C(C)(C)[C@@H]5CC[C@]43C)[C@@H]12`, the results for the Activity in experiment [1] and in experiment [2] were -10.4% and -8.21%, respectively.
On to `C=C(C)[C@@H]1CC[C@]2(C)CC[C@]3(C)[C@H](CC[C@@H]4[C@@]5(C)CC[C@H](OC(=O)c6ccc7ccccc7n6)C(C)(C)[C@@H]5CC[C@]43C)[C@@H]12`, for which the Activity is -8% in experiment [3]; 11% in experiment [4]; -20% in experiment [5]; -30% in experiment [6]; -27% in experiment [7]; -7% in experiment [8]. Further, the Activity in experiment [9] was -5%.
